According to patent US20260200928A1, “THERAPEUTIC COMPOUNDS” (Sanofi, priority 2022, published 2026):

Biological target: T1, human IL-17A (Homo sapiens, UniProt Q16552)
T1 construct: purchased R&D Systems 7955-IL/CF
T1 sequence (Q16552 24-155): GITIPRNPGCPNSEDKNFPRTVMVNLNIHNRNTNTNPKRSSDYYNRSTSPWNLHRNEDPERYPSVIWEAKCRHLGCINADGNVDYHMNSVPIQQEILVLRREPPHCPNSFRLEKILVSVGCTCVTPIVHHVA
Assay: IL-17A AlphaLISA competition assay (block of IL-17A binding to its receptor IL-17RA)
Conditions: mean IC50 (n≥2), block of IL-17A binding to IL-17RA
Method in brief: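 Human recombinant IL-17A (7.5 nM stock) pre-incubated 30 min at RT with compound, then IL-17RA/Fc (5 nM stock) added for 90 min; AlphaLISA read with anti-Fc acceptor beads, biotinylated anti-IL-17A antibody (5 nM) and streptavidin donor beads (3 h, dark). IC50 from 4-parameter logistic fit, normalised to DMSO and 4 μM reference inhibitor; n≥2.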

**Q.** With CC(C)n1nccc1C(=O)N[C@H](C(=O)Nc1cc(C(NC(=O)CCC(F)(F)F)C2CC2)ccn1)C1CCC(F)(F)CC1 (stereo partly drawn) [Example 110, N-((1S)-2-((4-(cyclopropyl(4,4,4-trifluorobutanamido)methyl)pyridin-2-yl)amino)-1-(4,4-difluorocyclohexyl)-2-oxoethyl)-1-isopropyl-1H-pyrazole-5-carboxamide] as the compound, how does the IC50 read?
**A.** Its IC50 is 30 nM.

**Q.** For COC[C@H](c1ccnc(NC(=O)C(NC(=O)c2conc2C)C2CCC(F)CC2)c1)N1C[C@@H](C(F)(F)F)NC1=O (single isomer, unassigned) [Example 283], which IC50 is on record?
**A.** The IC50 was 97 nM.
